# Laboratory results as given in patent publication US20220153734A1, “Pyrazolopyridine Compounds For IRE1 Inhibition” (Optikira, LLC, priority 2019, published 2022).
# pIC50: −log10 of the molar value.
# Key:
# IRE1α = biological target: T1, IRE1α (Homo sapiens, UniProt O75460); assay: Biochemical assay: inhibition of RNase activity of IRE1α; conditions: enzyme 0.325 nM, substrate 100 nM, 20 minutes
# T1 construct: purchased Signal Chem E31-11G
# Protocol: Biochemical Assay: Inhibition of RNase Activity of IRE1α
# The RNase reactions were performed in 384 well black ProxiPlate-384 Plus plates (PERKIN Elmer) using 50 mM Tris assay buffer with 0.5 mM MgCl2, 10 mM KCl, 0.03% Tween, 2 mM DTT and 1% DMSO. Test compounds were prepared on the day of assay and dispensed using D300 digital dispenser as a 10-point ½ log dilution series in duplicate, normalized to a final DMSO concentration of […]. Test compounds were pre-incubated for 30 min at room temperature with IRE1α kinase (E31-11G from Signal Chem) in 2.5 μL of assay buffer. Then 2.5 μl of assay buffer containing substrate (5′ Alexa Fluor 647-rCrArU rGrUrC rCrGrC rArGrC rGrCrArUrG-Iowa Black RQ quencher 3′) added, giving a final concentration of enzyme of 0.325 nM and of substrate of 100 nM. After 20 minutes incubation at room temperature the reactions were stopped by added 5 μL of 5M urea, incubated at room temperature for 10 minutes and fluorescence measured on a plate reader (EnVision, PerkinElmer). IC50 values calculated by fitting a sigmoidal curve to percent inhibition of control versus compound concentration.
# [1] = test system: ARPE-19 cells stably expressing XBP1 (a.a. 1-376); assay: Cellular XBP1 splicing assay (NanoLuc luciferase, thapsigargin); format: cell-based; conditions: thapsigargin 150 nM
# Protocol: Cellular XBP1 Splicing Assay
# ARPE-19 cells stably expressing XBP1 (a.a. 1-376) with nano-luciferase gene sequence linked so it is in frame when XBP1 is spliced, were cultured in F12 media, 10% FBS, 0.044% sodium bicarbonate, 150 μg/ml hygromycin B and seeded for assays at 5,000 cells in 384 well plates in culture media without hygromycin B and incubated at 37° C./5% CO2. After overnight incubation test compounds were added to the cell plate in a 10-point ½ log dilution series in duplicate (final DMSO concentration 0.117%). After further incubation of 30 minutes thapsigargin was added (final concentration 150 nM) and then another 4 hour incubation. A NanoLuc luciferase assay (Promega) was used according to the manufacturer's instructions to detect the luciferase and luminescence measured on a luminometer (EnVision, PerkinElmer). IC50 values calculated by fitting a sigmoidal curve to percent inhibition of control of compound concentration.
# T1 sequence (O75460 468-977 limits assumed): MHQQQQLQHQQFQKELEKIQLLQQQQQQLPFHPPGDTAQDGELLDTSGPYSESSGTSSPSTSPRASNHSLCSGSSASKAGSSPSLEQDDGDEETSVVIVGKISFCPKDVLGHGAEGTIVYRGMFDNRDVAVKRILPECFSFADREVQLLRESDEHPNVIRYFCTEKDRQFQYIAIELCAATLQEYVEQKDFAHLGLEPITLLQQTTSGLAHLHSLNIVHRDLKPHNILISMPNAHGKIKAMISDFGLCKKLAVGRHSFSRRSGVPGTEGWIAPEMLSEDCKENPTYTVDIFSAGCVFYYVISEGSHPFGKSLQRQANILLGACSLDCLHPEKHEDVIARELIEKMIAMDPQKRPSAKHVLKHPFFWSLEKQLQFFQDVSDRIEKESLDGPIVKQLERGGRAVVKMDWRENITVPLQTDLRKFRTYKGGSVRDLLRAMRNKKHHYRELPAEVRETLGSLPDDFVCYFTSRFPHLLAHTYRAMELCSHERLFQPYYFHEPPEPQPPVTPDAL
SMILES,pIC50 (IRE1α),pIC50 ([1]; 4 hour),"pIC50 ([1]; Homo sapiens, ARPE-19, 4 h)"
"CCn1nc(-c2ccc(NS(=O)(=O)c3ccccc3F)c(F)c2)c2c(N)ncc(C3=CCC(NC4COC4)CC3)c21 (single isomer, unassigned) [Compound B33, N-(4-(4-amino-1-ethyl-7-(4-(oxetan-3-ylamino)cyclohex-1-en-1-yl)-1H-pyrazolo[4,3-c]pyridin-3-yl)-2-fluorophenyl)-2-fluorobenzenesulfonamide]",7.22,7.00,–
"CCn1nc(-c2ccc(NS(=O)(=O)c3ccccc3F)c(F)c2)c2c(N)ncc(C3=CCC(NC4COC4)CC3)c21 (single isomer, unassigned) [Compound B34, N-(4-(4-amino-1-ethyl-7-(4-(oxetan-3-ylamino)cyclohex-1-en-1-yl)-1H-pyrazolo[4,3-c]pyridin-3-yl)-2-fluorophenyl)-2-fluorobenzenesulfonamide]",7.00,6.40,–
"CCn1nc(-c2ccc(NS(=O)(=O)c3cc(C)ccc3F)c(F)c2)c2c(N)ncc(C3=CCC(NC4COC4)CC3)c21 (single isomer, unassigned) [Compound B35, N-(4-(4-amino-1-ethyl-7-(4-(oxetan-3-ylamino)cyclohex-1-en-1-yl)-1H-pyrazolo[4,3-c]pyridin-3-yl)-2-fluorophenyl)-2-fluoro-5-methylbenzenesulfonamide]",7.85,7.28,–
"CCn1nc(-c2ccc(NS(=O)(=O)c3cc(C)ccc3F)c(F)c2)c2c(N)ncc(C3=CCC(NC4COC4)CC3)c21 (single isomer, unassigned) [Compound B36, N-(4-(4-amino-1-ethyl-7-(4-(oxetan-3-ylamino)cyclohex-1-en-1-yl)-1H-pyrazolo[4,3-c]pyridin-3-yl)-2-fluorophenyl)-2-fluoro-5-methylbenzenesulfonamide]",7.29,6.68,–
"CCn1nc(-c2ccc(NS(=O)(=O)c3cc(Cl)ccc3F)c(F)c2)c2c(N)ncc(C3=CCC(NC4COC4)CC3)c21 (single isomer, unassigned) [Compound B38, N-(4-(4-amino-1-ethyl-7-(4-(oxetan-3-ylamino)cyclohex-1-en-1-yl)-1H-pyrazolo[4,3-c]pyridin-3-yl)-2-fluorophenyl)-5-chloro-2-fluorobenzenesulfonamide]",8.25,7.01,–
"CC(CF)NC1CC=C(c2cnc(N)c3c(-c4ccc(NS(=O)(=O)c5ccccc5Cl)c(F)c4)nn(C(C)C)c23)CC1 (single isomer, unassigned) [Compound B40, N-(4-(4-amino-7-(4-((1-fluoropropan-2-yl)amino)cyclohex-1-en-1-yl)-1-isopropyl-1H-pyrazolo[4,3-c]pyridin-3-yl)-2-fluorophenyl)-2-chlorobenzenesulfonamide]",7.85,7.17,–
"CC(CF)NC1CC=C(c2cnc(N)c3c(-c4ccc(NS(=O)(=O)c5ccccc5Cl)c(F)c4)nn(C(C)C)c23)CC1 (single isomer, unassigned) [Compound B41, N-(4-(4-amino-7-(4-((1-fluoropropan-2-yl)amino)cyclohex-1-en-1-yl)-1-isopropyl-1H-pyrazolo[4,3-c]pyridin-3-yl)-2-fluorophenyl)-2-chlorobenzenesulfonamide]",8.21,8.00,–
"CC(C)n1nc(-c2ccc(NS(=O)(=O)Cc3ccccc3Cl)c(F)c2)c2c(N)ncc(C3=CCC(NC4CC(F)(F)C4)CC3)c21 (single isomer, unassigned) [Compound B48, N-(4-(4-amino-7-(4-((3,3-difluorocyclobutyl)amino)cyclohex-1-en-1-yl)-1-isopropyl-1H-pyrazolo[4,3-c]pyridin-3-yl)-2-fluorophenyl)-1-(2-chlorophenyl)methanesulfonamide]",8.89,7.89,–
"CC(C)n1nc(-c2ccc(NS(=O)(=O)c3ccccc3Cl)c(F)c2)c2c(N)ncc(C3=CCC(NC4CC(F)(F)C4)CC3)c21 (single isomer, unassigned) [Compound B50]",8.30,7.60,–
"CC(C)n1nc(-c2ccc(NS(=O)(=O)c3ccccc3Cl)c(F)c2)c2c(N)ncc(C3=CCC(NC4CC(F)(F)C4)CC3)c21 (single isomer, unassigned) [Compound B51]",7.51,6.72,–

# Results, then the compound that gave them:
pIC50 (IRE1α),pIC50 ([1]; 4 hour),"pIC50 ([1]; Homo sapiens, ARPE-19, 4 h)",SMILES
8.77,7.74,–,"CC(F)CNC1CC=C(c2cnc(N)c3c(-c4ccc(NS(=O)(=O)Cc5ccccc5Cl)c(F)c4)nn(C(C)C)c23)CC1 (single isomer, unassigned) [Compound B42, N-(4-(4-amino-7-(4-((2-fluoropropyl)amino)cyclohex-1-en-1-yl)-1-isopropyl-1H-pyrazolo[4,3-c]pyridin-3-yl)-2-fluorophenyl)-1-(2-chlorophenyl)methanesulfonamide]"
9.30,8.29,–,"CC(F)CNC1CC=C(c2cnc(N)c3c(-c4ccc(NS(=O)(=O)Cc5ccccc5Cl)c(F)c4)nn(C(C)C)c23)CC1 (single isomer, unassigned) [Compound B43, N-(4-(4-amino-7-(4-((2-fluoropropyl)amino)cyclohex-1-en-1-yl)-1-isopropyl-1H-pyrazolo[4,3-c]pyridin-3-yl)-2-fluorophenyl)-1-(2-chlorophenyl)methanesulfonamide]"
8.80,8.00,–,"CC(CF)NC1CC=C(c2cnc(N)c3c(-c4ccc(NS(=O)(=O)Cc5ccccc5Cl)c(F)c4)nn(C(C)C)c23)CC1 (single isomer, unassigned) [Compound B44, N-(4-(4-amino-7-(4-((1-fluoropropan-2-yl)amino)cyclohex-1-en-1-yl)-1-isopropyl-1H-pyrazolo[4,3-c]pyridin-3-yl)-2-fluorophenyl)-1-(2-chlorophenyl)methanesulfonamide]"
8.47,7.33,–,"CC(CF)NC1CC=C(c2cnc(N)c3c(-c4ccc(NS(=O)(=O)Cc5ccccc5Cl)c(F)c4)nn(C(C)C)c23)CC1 (single isomer, unassigned) [Compound B45, N-(4-(4-amino-7-(4-((1-fluoropropan-2-yl)amino)cyclohex-1-en-1-yl)-14sopropyl-1H-pyrazolo[4,3-c]pyridin-3-yl)-2-fluorophenyl)-1-(2-chlorophenyl)methanesulfonamide]"
8.33,–,7.66,"CC(F)CNC1CC=C(c2cnc(N)c3c(-c4ccc(NS(=O)(=O)c5ccccc5Cl)c(F)c4)nn(C(C)C)c23)CC1 (single isomer, unassigned) [Compound B46, N-(4-(4-amino-7-(4-((2-fluoropropyl)amino)cyclohex-1-en-1-yl)-1-isopropyl-1H-pyrazolo[4,3-c]pyridin-3-yl)-2-fluorophenyl)-2-chlorobenzenesulfonamide]"
8.35,7.77,–,"CC(F)CNC1CC=C(c2cnc(N)c3c(-c4ccc(NS(=O)(=O)c5ccccc5Cl)c(F)c4)nn(C(C)C)c23)CC1 (single isomer, unassigned) [Compound B47, N-(4-(4-amino-7-(4-((2-fluoropropyl)amino)cyclohex-1-en-1-yl)-1-isopropyl-1H-pyrazolo[4,3-c]pyridin-3-yl)-2-fluorophenyl)-2-chlorobenzenesulfonamide]"
8.39,7.19,–,"CC(C)n1nc(-c2ccc(NS(=O)(=O)Cc3ccccc3Cl)c(F)c2)c2c(N)ncc(C3=CCC(NC4CC(F)(F)C4)CC3)c21 (single isomer, unassigned) [Compound B49, N-(4-(4-amino-7-(4-((3,3-difluorocyclobutyl)amino)cyclohex-1-en-1-yl)-1-isopropyl-1H-pyrazolo[4,3-c]pyridin-3-yl)-2-fluorophenyl)-1-(2-chlorophenyl)methanesulfonamide]"
